Laboratory results reported in patent US20040019430A1, “Methods and systems for analyzing complex biological systems” (priority 2001, published 2004).

Experiments:
[1] = tested on: Saccharomyces cerevisiae wild type strain BY4743; assay: AF1 combined gene expression and metabolite data mapped to KEGG reactions and pathways; assay type: cell-based; settings: yeast AF1
Excerpt: In AF1, two different technologies were utilized: gene expression analysis (for examination of mRNA expression) and metabolite analysis. […] As noted previously, existing metabolic databases may be helpful in practicing the methods and systems of the present invention, but many databases include limitations that make their use in data analysis and pathway mapping less than straightforward. […] This caveat to KEGG makes it difficult to pinpoint the correct pathway when attempting to link a gene to a specific pathway. […] The pathway score indicates how meaningful the mapping is, or how likely it is to be correctly indicative of the pathway involved in the perturbation under examination. The method provides a pathway score based on perturbation levels of genes and/or compounds and the information content of each gene and/or compound in the pathway, i.e., a pathway score indicates the extent to which other pathways are mapped to a gene/compound. For example, imagine that two genes are perturbed in a particular experiment. One gene maps to only one pathway, giving a high degree of probability that the perturbed pathway is the one identified in the mapping. The second gene maps to three pathways. In the later example, there is only one-third the probability that the pathway identified in the mapping is the one perturbed. The present invention provides a method for calculating the pathway scores, so that more weight is given to a score of a gene or compound that maps to only one pathway than to a score of a gene or compound that maps to multiple pathways. […] Where n=the total number of genes in the pathway; ipath—count=the number of pathways containing a gene; and j=the number of genes in the pathway that are perturbed. Another factor to be considered when weighting a pathway score is the degree of perturbation. Degree of perturbation can be calculated, for example, based on a number of standard deviations from a norm, and included in an equation such as the one shown above, so that not only the number of pathways is taken into account, but also accounts for the amount of gene transcript or compound present as compared to a control. Compounds were also linked to pathways using the KEGG database. KEGG links 676 compounds measured in AF1 to a total of 92 pathways. Of the 676 compounds under consideration, 77 were detected in the AF1 samples. […] The multiple mapping feature of KEGG makes it difficult to pinpoint the correct pathway when trying to link a compound to a specific pathway. […] A pathway score calculation is applied to the compounds to account for both information content (number of pathways a compound maps to) and perturbation level. The data were then combined to determine the number of reactions showing an enzyme and at least one compound perturbed, and to determine the number of pathways having at least one enzyme and one perturbed compound perturbed. The results of the analysis are represented in Tables 16 and 17, and were difficult to interpret, illustrating that the ability to draw conclusions from compound mapping to pathways is limited when absent additional data.

[2] = tested on: Arabidopsis thaliana plants; assay: SOA1 phenotypic analysis of herbicide-treated Arabidopsis plants (MIC, Tmic, leaf traits); assay type: in vivo; settings: for Characteristic symptoms (phenotype): herbicide treated Arabidopsis; for Dev. leafCurling / Dev. leafTwisting / Dev. matureLeafAnthocyanins / Dev. matureLeafChlorosis / Dev. matureLeafNecrosis / Dev. newLeafAnthocyanins / Dev. newLeafChlorosis / Dev. newLeafNecrosis / Dev. pointedLeaves: numeric value standardized to mock treated; for Dev. leafWidth: numeric value standardized to the average response for the mock treated tissues; for Symptom Class: three-week-old Arabidopsis plants treated with herbicide, phenotype classes of FIG. 12
Arabidopsis thaliana [3] = assay: MOA1 phenotypic profiling of Arabidopsis sprayed with unknown and commercial herbicides; assay type: in vivo; settings: Ward's method
Magnaporthe grisea = assay type: cell-based
Arabidopsis thaliana [4] = assay: MOA1 biochemical (metabolite) profiling by LC-MS and GC-MS
[5] = tested on: Saccharomyces cerevisiae wild type strain BY4743; assay: AF1 metabolite analysis (GC-MS, LC-MS) of yeast cells treated with antifungal drugs; assay type: cell-based; parameters: Fold Change: scale not given here
[6] = 250 μg/ml (partially inhibitory)

For `OC(Cn1cncn1)(Cn1cncn1)c1ccc(F)cc1F` [Fluconazole], the “# Reactions (title: Number Of Pathways Having at Least One Enzyme and One Compound Perturbed)” value (shortened to “# Reactions”) [1] was 15.
`CP(=O)(O)CCC(N)C(=O)O` (centres unmarked) [Glufosinate] was tested, and the “Dev. tMic” value [2] was 1, the “Characteristic symptoms (phenotype)” value [2] was “Chlorosis and leaf curling” and the “Dev. leafCurling” value [2] was 2. The “Dev. leafTwisting” value [2] was 1, the “Dev. matureLeafAnthocyanins” value [2] was 0 and the “Dev. matureLeafChlorosis” value [2] was 3. For the same molecule, the “Dev. matureLeafNecrosis” value [2] was 0, the “Dev. newLeafAnthocyanins” value [2] was 0 and the “Dev. newLeafChlorosis” value [2] was 3. For the same molecule, the “Dev. newLeafNecrosis” value [2] was 0, the “Dev. pointedLeaves” value [2] was 1 and the “Dev. leafWidth” value [2] was −2. For the same molecule, the “Symptom Class” value [2] was 3, the “Hierarchical cluster analysis of the eleven phenotypic characteristics / phenotype” value (Arabidopsis thaliana [3]) was “clustered with amitrole” and the “Nitrogen sources M. grisea can utilize in presence of compound” value (Magnaporthe grisea) was “only able to utilize glutamine and glutamate as nitrogen sources”. For the same molecule, the “Stress-related (commonly regulated) metabolites” value (Arabidopsis thaliana [4]; MOA1, 20 min and 1 hr after spraying) was “Only a few, if any, stress-related metabolites were observed”.
With `CC(=O)N1CCN(c2ccc(OCC3COC(Cn4ccnc4)(c4ccc(Cl)cc4Cl)O3)cc2)CC1` (centres unmarked) [Ketoconazole] the “# Compounds perturbed by treatment” value ([5]; P < 0.1, yeast, 2x MIC, two hours) was 15 and the “# Reactions” value [1] was 24.
With `CC[C@@H]([C@H](C)O)n1ncn(-c2ccc(N3CCN(c4ccc(OC[C@@H]5CO[C@@](Cn6cncn6)(c6ccc(F)cc6F)C5)cc4)CC3)cc2)c1=O` [Posaconazole] the “Fold Change” value ([5]; metabolite NacetylD-glucosamine, platform nLC) was 0, the “Fold Change” value ([5]; metabolite NacetylD-glucosamine, platform pLC) was 0 and the “Fold Change” value ([5]; metabolite NacetylL-glutamate, platform pLC) was 0. For the same molecule, the “Fold Change” value ([5]; metabolite NacetylL-ornithine, platform nLC) was 0, the “Fold Change” value ([5]; metabolite niacinamide, platform pLC) was 0 and the “Fold Change” value ([5]; metabolite nopaline, platform pLC) was 0. The “Fold Change” value ([5]; metabolite ornithine3, platform GC) was 0.041, the “Fold Change” value ([5]; metabolite orotic acid, platform nLC) was 0 and the “Fold Change” value ([5]; metabolite phenylpyruvic acid, platform nLC) was 0. The “Fold Change” value ([5]; metabolite phosphoenolpyruvate, platform nLC) was 0, the “Fold Change” value ([5]; metabolite phosphoenolpyruvate, platform pLC) was 0 and the “Fold Change” value ([5]; metabolite pinitol, platform nLC) was 0. The “Fold Change” value ([5]; metabolite porphobilinogen, platform nLC) was 0, the “Fold Change” value ([5]; metabolite progesterone, platform pLC) was 0 and the “Fold Change” value ([5]; metabolite retinoic acid, platform nLC) was 0. The “Fold Change” value ([5]; metabolite riboflavin, platform pLC) was 0, the “Fold Change” value ([5]; metabolite salicylic/HObenzoic, platform nLC) was 0 and the “Fold Change” value ([5]; metabolite shikimic acid, platform nLC) was 0. The “Fold Change” value ([5]; metabolite sinapinic acid, platform nLC) was 0, the “Fold Change” value ([5]; metabolite sugar-phosphate, platform pLC) was 0 and the “Fold Change” value ([5]; metabolite thiamine, platform pLC) was 0. The “Fold Change” value ([5]; metabolite thymine, platform nLC) was 0, the “Fold Change” value ([5]; metabolite thymine, platform pLC) was 0 and the “Fold Change” value ([5]; metabolite tryptophan, platform pLC) was 0. For the same molecule, the “Fold Change” value ([5]; metabolite uric acid, platform pLC) was 0, the “Fold Change” value ([5]; metabolite urocanic acid, platform nLC) was 0 and the “Fold Change” value ([5]; metabolite urocanic acid, platform pLC) was 0. For the same molecule, the “Fold Change” value ([5]; metabolite xanthosine (diH2O), platform pLC) was 0, the “Fold Change” value ([5]; metabolite xanthosine-DiH2O, platform nLC) was 0 and the “Fold Change” value ([5]; metabolite zeatin, platform nLC) was 0. The “Fold Change” value ([5]; metabolite zeatin, platform pLC) was 0 and the “# Reactions” value [1] was 3.
`O=C(O)CNCP(=O)(O)O` [Glyphosate] was tested, and the “Dev. tMic” value [2] was 2, the “Characteristic symptoms (phenotype)” value [2] was “anthocyanin accumulation in the older leaves accompanied by chlorosis of the newly emerging leaves” and the “Dev. leafCurling” value [2] was 0. For the same molecule, the “Dev. leafTwisting” value [2] was 0, the “Dev. matureLeafAnthocyanins” value [2] was 3 and the “Dev. matureLeafChlorosis” value [2] was 1. The “Dev. matureLeafNecrosis” value [2] was 3, the “Dev. newLeafAnthocyanins” value [2] was 1 and the “Dev. newLeafChlorosis” value [2] was 2. For the same molecule, the “Dev. newLeafNecrosis” value [2] was 0, the “Dev. pointedLeaves” value [2] was 1 and the “Dev. leafWidth” value [2] was 0. The “Symptom Class” value [2] was 4, the “Hierarchical cluster analysis of the eleven phenotypic characteristics / phenotype” value (Arabidopsis thaliana [3]) was “clustered with amitrole” and the “Growth of M. grisea with ammonium or glutamine provided” value (Magnaporthe grisea; [6]) was “Little growth defect”. For the same molecule, the “Growth of M. grisea with nitrate, nitrite, or glutamate as the sole nitrogen source” value (Magnaporthe grisea; [6]) was “inhibited growth” and the “Tyrosine level (metabolite downstream from the SOA)” value (Arabidopsis thaliana [4]; after one hour) was “decreased relative to the control after one hour”.
